# Data from ChEMBL document CHEMBL4311995, “Discovery and development of extreme selective inhibitors of the ITD and D835Y mutant FLT3 kinases” (Eur J Med Chem, 2019).
# Legend:
# K562 = assay: cells; type: functional, cell-based; settings: Homo sapiens, K562, 72 h
# in vitro = settings: PAMPA, pH 7.4
# cells = type: ADME, cell-based; settings: Homo sapiens, HS5, 72 h
# physchem [1] = settings: buffer, pH 2
# U-937 = assay: cells; type: functional, cell-based; settings: Homo sapiens, U-937, 72 h
# MV4-11 = assay: cells; type: functional, cell-based; settings: Homo sapiens, MV4-11, 72 h
# physchem [2] = settings: buffer, pH 7.4
SMILES,IC50 (K562),Papp at 5 h (in vitro),IC50 (cells),solubility kinetic at 24 h (physchem [1]),IC50 (U-937),IC50 (MV4-11),solubility kinetic at 24 h (physchem [2])
CN(C)CCCNc1nc(/C=C/c2ccc(S(C)(=O)=O)cc2)nc2ccc(Cl)cc12,4.84 µM,0.61 ×10⁻⁶ cm/s,4.03 µM,111 µM,9.02 µM,–,23 µM
CSc1ccc(/C=C/c2nc(NCCN(C)C)c3ccccc3n2)cc1,5.21 µM,5.86 ×10⁻⁶ cm/s,4 µM,119 µM,–,–,116 µM
COc1cc2c(N3CCN(C(=O)Nc4ccc(OC(C)C)cc4)CC3)ncnc2cc1OCCCN1CCCCC1 [TANDUTINIB],9.21 µM,–,11.4 µM,–,19.8 µM,0.06 µM,–
CN(C)CCNc1nc(/C=C/c2ccc(S(C)(=O)=O)cc2)nc2ccc(Cl)cc12,6.94 µM,0.36 ×10⁻⁶ cm/s,4.76 µM,112 µM,12.3 µM,–,8 µM

# Continued, values first:
IC50 (K562),Papp at 5 h (in vitro),IC50 (cells),solubility kinetic at 24 h (physchem [1]),IC50 (U-937),IC50 (MV4-11),solubility kinetic at 24 h (physchem [2]),SMILES
2.59 µM,0.56 ×10⁻⁶ cm/s,4.09 µM,115 µM,4.95 µM,0.04 µM,12 µM,CCN(CC)CCNc1nc(/C=C/c2ccc(S(C)(=O)=O)cc2)nc2ccc(Cl)cc12
2.12 µM,1.74 ×10⁻⁶ cm/s,3.36 µM,120 µM,4.11 µM,–,36 µM,CCN(CC)CCNc1nc(/C=C/c2ccc(C(C)C)cc2)nc2ccc(F)cc12
4.03 µM,3.38 ×10⁻⁶ cm/s,3.28 µM,119 µM,4.1 µM,0.06 µM,5 µM,CC(C)c1ccc(/C=C/c2nc(NCCN(C)C)c3cc(F)ccc3n2)cc1
2.87 µM,0.73 ×10⁻⁶ cm/s,3.03 µM,110 µM,–,–,12 µM,CC(C)c1ccc(/C=C/c2nc(NCCN(C)C)c3cc(Cl)ccc3n2)cc1
4.03 µM,5.35 ×10⁻⁶ cm/s,2.07 µM,96 µM,6.36 µM,–,96 µM,CCN(CC)CCCNc1nc(/C=C/c2ccc(OC)cc2)nc2ccc(Br)cc12
5.81 µM,9.61 ×10⁻⁶ cm/s,6.37 µM,120 µM,10.9 µM,–,10 µM,CN(C)CCNc1nc(/C=C/c2ccc(F)cc2)nc2ccccc12
